The record followed here is PubChem BioAssay (NCI).

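How tested: cells in 96-well plates exposed to compound for 48 hours at five concentrations. The concentration for 50% growth inhibition is given as GI50. TGI denotes the concentration required for complete inhibition of growth.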

What all share (assay): DTP human tumour cell line panel, 48 h
For assay [1], the system named is RXF 393 renal.
The test system of assay [2] is NCI-H522 lung.
Assay [3] relates to U251 CNS.
Assay [4] relates to ACHN renal.
Assay [5] relates to NCI-H23 lung.
In assay [6] the test system is M14 melanoma.
Assay [7] deals with SW-620 colon.
The subject of assay [8] is A549 NSCLC.
The test system of assay [9] is K-562 leukemia.
For assay [10], the system named is SF-539 CNS.

As a reminder, the GI50 is the concentration at which growth is held to half of that of the control. As usually defined, the TGI is the concentration at which net growth stops. Read a low TGI as more potent growth arrest. `COc1cc2c(cc1OC)C(=O)/C(=C/c1cccc(OCC(=O)c3ccccc3)c1)C2`: the GI50 was 35.4 µM in [1]; 4.6 µM in assay [2]; 8.17 µM in [3]; 26.7 µM in assay [4]; 22.3 µM in [5]; 34.2 µM in [6]. Besides, the GI50 in assay [7] was 38.3 µM; in assay [8], 26.6 µM; in assay [9], 3.11 µM; in assay [10] it was 16.2 µM. The total growth inhibition concentration (TGI) in assay [1] is over 100 µM; in [2], 50.5 µM; in assay [3], over 100 µM; in assay [4], over 100 µM; in assay [5], over 100 µM; in assay [6], over 100 µM. In addition, the TGI is over 100 µM in assay [7], over 100 µM in assay [8], over 100 µM in assay [9] and 63.9 µM in assay [10].

For `CC(=O)Nc1ccc2c(c1)c(C1=C(c3cn(C)c4ccccc34)C(=O)NC1=O)cn2C`, the GI50 in assay [1] was 0.608 µM; in [2], 0.702 µM; in assay [3] it was 1.16 µM; in [4], 1.57 µM; in [5] it was 5.45 µM; in assay [6], 1.5 µM. In addition, the GI50 in assay [7] is 1.02 µM; in assay [8], 1.65 µM; in assay [9], 0.926 µM; in assay [10], 0.671 µM. Moreover, the concentration for total growth inhibition (TGI) in assay [1] was 2.68 µM; in assay [2] it was over 6.59 µM; in assay [3] it was over 25 µM; in [4] it was over 25 µM; in assay [5], over 25 µM; in assay [6] it was over 25 µM. The concentration for total growth inhibition (TGI) in assay [7] is over 25 µM; in assay [8], over 25 µM; in assay [9], over 25 µM; in assay [10], 1.97 µM.

Consider `O=C(CCCCCCSc1nc(-c2ccccc2)cc(-c2ccc(Cl)cc2)n1)NO`, for which the GI50 in [1] was 1.57 µM; in assay [2], 1.13 µM; in assay [3], 1.59 µM; in [4], 1.58 µM; in assay [5], 1.88 µM; in assay [6], 1.95 µM. Besides, the GI50 was 1.48 µM in assay [7], 2.16 µM in assay [8], 1.66 µM in assay [9] and 1.84 µM in assay [10]. Moreover, the total growth inhibition concentration (TGI) came to 3.89 µM in assay [1]; 8.05 µM in assay [2]; 4.08 µM in assay [3]; 3.64 µM in assay [4]; 5.13 µM in assay [5]; 6.53 µM in assay [6]. In addition, the TGI was determined as 10.4 µM in [7], 6.23 µM in assay [8], 10.8 µM in [9] and 5.31 µM in assay [10].

As for `CCOc1ccccc1NC(=O)C(=O)CC(=O)c1c(C)n([O-])c2ccccc2[n+]1=O`, the TGI in assay [1], in assay [2], in assay [3], in assay [4], in assay [5] and in assay [6] was over 100 µM throughout. For the same compound, the TGI in [7], in [8], in assay [9] and in assay [10] was over 100 µM throughout.

On to `COc1ccc2c(c1)[nH]c(=O)c1c3cc(C)c(C)cc3cn21`, for which the concentration for 50% growth inhibition (GI50) in assay [1] was under 0.01 µM; in [2] it was under 0.0115 µM; in assay [3] it was under 0.01 µM; in assay [4] it was under 0.0173 µM; in assay [5], 0.0305 µM; in [6], under 0.01 µM. The concentration for 50% growth inhibition (GI50) was under 0.01 µM in assay [7], under 0.0185 µM in assay [8], under 0.01 µM in [9] and 0.0186 µM in assay [10]. The total growth inhibition concentration (TGI) was 1.22 µM in assay [1]; under 0.0275 µM in assay [2]; 1.2 µM in assay [3]; 1.58 µM in assay [4]; 0.392 µM in assay [5]; 1.2 µM in assay [6]. The TGI is 1.47 µM in assay [7], 1.32 µM in assay [8], 0.14 µM in assay [9] and 0.0578 µM in [10].

In the case of `COc1cc(-c2nn(-c3ccc(NC(=O)c4ccc(Cl)c(Cl)c4)cc3)cc2-c2ccncc2)ccc1Cl`, the GI50 is 1.5 µM in assay [1]; over 100 µM in [2]; 5.7 µM in assay [3]; 8.06 µM in [4]; 38.4 µM in assay [5]; 22.4 µM in assay [6]. Moreover, the GI50 is 5.63 µM in [7], over 100 µM in assay [8], 4.05 µM in [9] and 2.85 µM in assay [10]. For the same compound, the TGI is 4.53 µM in assay [1]; over 100 µM in [2]; over 100 µM in assay [3]; over 100 µM in assay [4]; over 100 µM in assay [5]; over 100 µM in assay [6]. For the same compound, the TGI in [7], in assay [8], in [9] and in assay [10] was over 100 µM in each case.

On to `Cc1ncc(CN=Cc2ccc(Cl)cc2)c(N)n1`, for which the total growth inhibition concentration (TGI) in assay [1], in assay [2], in assay [3], in [4], in [5] and in [6] was over 100 µM in each case. The TGI in assay [7], in assay [8], in assay [9] and in assay [10] was over 100 µM throughout.

With `O=C(CN1CCN(c2ncccn2)CC1)Nc1ccc(Cl)cc1C(=O)c1ccccc1Cl`, the GI50 was over 100 µM in assay [1]; 46.6 µM in [2]; over 100 µM in assay [3]; over 100 µM in [4]; over 100 µM in assay [5]; over 100 µM in assay [6]. The GI50 in assay [7] was over 100 µM; in assay [8], 47.6 µM; in assay [9], 32 µM; in assay [10], over 100 µM. In addition, the TGI in assay [1], in assay [2], in assay [3], in [4], in [5] and in [6] was over 100 µM each time. Besides, the TGI in assay [7], in assay [8], in assay [9] and in assay [10] was over 100 µM each time.
